In ChEMBL document CHEMBL1201862, “PubChem BioAssay data set” (2004) one finds AC50, IC50 and EC50 data, which are given here for ten compounds.

Structures are written as SMILES. The source made the active and inactive calls.

For one assay, the target named is Trypsin (Sus scrofa, UniProt P00761). Put plainly: porcine trypsin inhibitors, dose response, selectivity assay for Rce1 protease inhibitor project, biochemical, quenched peptide fluorescence, cherry-pick (AID 488789).
In assay [1] the target is T1, CAAX prenyl protease 2 (Saccharomyces cerevisiae S288c, UniProt Q03530).
T1 sequence (Q03530 whole entry): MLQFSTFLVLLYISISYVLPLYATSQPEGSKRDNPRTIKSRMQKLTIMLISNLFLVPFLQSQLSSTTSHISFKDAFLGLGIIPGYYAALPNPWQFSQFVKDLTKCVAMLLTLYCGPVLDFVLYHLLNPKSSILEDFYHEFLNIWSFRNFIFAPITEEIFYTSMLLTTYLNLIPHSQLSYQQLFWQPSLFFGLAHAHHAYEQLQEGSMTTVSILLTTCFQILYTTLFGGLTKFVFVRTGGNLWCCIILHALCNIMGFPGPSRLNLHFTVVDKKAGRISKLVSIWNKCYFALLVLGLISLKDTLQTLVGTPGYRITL
It is filed as biochemical.

Assay [2] is described as follows: Luminescence Cell-Based Dose Retest to Confirm Inhibitors of Cancer Stem Cells. [Related pubchem assays (depositor defined):AID2717, AID2721]. It is filed as functional. As to conditions: Homo sapiens.
Assay [3] addresses Eukaryotic translation initiation factor 4E (Mus musculus, UniProt P63073). Put plainly: eIF4E–eIF4G protein interaction inhibitors, dose response, biochemical, TR-FRET (AID 855).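 Also: potency for disrupting eIF4E binding to eIF4GI seen as loss of FRET.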 The assay is classed as functional.
Assay [4] concerns the target T2, Polyadenylate-binding protein 1 (Homo sapiens, UniProt P11940). Put plainly: PABP1 MLLE–PAM2 binding inhibitor potency, dose response, biochemical, fluorescence polarization, FITC-PAM2 peptide (AID 602259). The assay is classed as functional. Conditions: read-out: IC50_Mean.
The next assay deals with Nonstructural protein 1 (Influenza A virus, UniProt Q194T2). The assay is classed as functional, Influenza A virus (A/California/07/2009(H1N1)).
Assay [5] deals with T3, Mannose-6-phosphate isomerase (Homo sapiens, UniProt P34949).
T3 sequence (P34949 whole entry): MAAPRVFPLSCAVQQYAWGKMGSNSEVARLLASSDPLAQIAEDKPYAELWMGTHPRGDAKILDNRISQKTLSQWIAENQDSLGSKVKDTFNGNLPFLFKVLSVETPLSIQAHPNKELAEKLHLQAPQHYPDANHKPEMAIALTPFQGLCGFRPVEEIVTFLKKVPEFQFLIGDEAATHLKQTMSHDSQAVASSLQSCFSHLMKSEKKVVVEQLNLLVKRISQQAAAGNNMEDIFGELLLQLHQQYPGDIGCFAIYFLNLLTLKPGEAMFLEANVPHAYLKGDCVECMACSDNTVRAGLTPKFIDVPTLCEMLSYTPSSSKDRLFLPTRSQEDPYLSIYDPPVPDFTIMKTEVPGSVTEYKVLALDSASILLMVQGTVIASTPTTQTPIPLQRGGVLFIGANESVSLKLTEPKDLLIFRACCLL
Put plainly: human PMI inhibitors, high substrate, primary screen, biochemical, fluorescence intensity, high mannose 6-phosphate (AID 1220).

Another assay deals with Estrogen receptor beta (Homo sapiens, UniProt Q92731). The assay can be described thus: ERβ–SRC-3 coactivator interaction inhibitors, confirmation, orthogonal assay, biochemical, ELISA, streptavidin-HRP readout (AID 1060).
Assay [6] addresses T2, Polyadenylate-binding protein 1. The assay can be described thus: PABP1 MLLE–PAM2 interaction inhibitors, dose response, miRNA deadenylation inhibitor project, biochemical, fluorescence polarization, Cy5-PAM2 peptide, secondary (AID 602260). It is filed as functional. Conditions: read-out: IC50_Mean.
Assay [7] deals with T4, Alkaline phosphatase, tissue-nonspecific isozyme (Homo sapiens, UniProt P05186).
T4 sequence (P05186 whole entry): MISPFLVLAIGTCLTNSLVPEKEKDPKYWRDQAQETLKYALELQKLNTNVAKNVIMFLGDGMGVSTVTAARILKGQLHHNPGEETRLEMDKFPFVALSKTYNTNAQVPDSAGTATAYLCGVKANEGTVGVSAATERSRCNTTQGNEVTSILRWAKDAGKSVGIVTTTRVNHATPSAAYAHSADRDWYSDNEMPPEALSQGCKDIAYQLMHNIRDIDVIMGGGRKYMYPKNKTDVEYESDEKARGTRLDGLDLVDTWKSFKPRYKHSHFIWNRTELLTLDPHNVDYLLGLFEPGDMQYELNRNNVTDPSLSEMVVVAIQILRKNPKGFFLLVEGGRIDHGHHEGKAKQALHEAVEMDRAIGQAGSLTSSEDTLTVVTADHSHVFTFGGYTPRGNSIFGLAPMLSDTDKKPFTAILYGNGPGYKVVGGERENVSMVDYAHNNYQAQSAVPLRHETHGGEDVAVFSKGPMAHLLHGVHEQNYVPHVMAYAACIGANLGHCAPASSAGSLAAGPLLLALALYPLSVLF
The assay can be described thus: human TNAP enzyme inhibitors, SAR follow-up, biochemical, luminescent, dose response (AID 1056).

Assay [8] deals with Glyceraldehyde-3-phosphate dehydrogenase (Homo sapiens, UniProt P04406).
Assay [9] addresses DNA dC->dU-editing enzyme APOBEC-3G (Homo sapiens, UniProt Q9HC16). Put plainly: Dose Response confirmation of small molecule APOBEC3G DNA Deaminase Inhibitors via a fluorescence-based single-stranded DNA deaminase assay. [Related pubchem assays (depositor defined):AID493012, AID493028]. It is filed as functional.
The target in assay [10] is T5, CAAX prenyl protease 2 (Homo sapiens, UniProt Q9Y256).
T5 sequence (Q9Y256 whole entry): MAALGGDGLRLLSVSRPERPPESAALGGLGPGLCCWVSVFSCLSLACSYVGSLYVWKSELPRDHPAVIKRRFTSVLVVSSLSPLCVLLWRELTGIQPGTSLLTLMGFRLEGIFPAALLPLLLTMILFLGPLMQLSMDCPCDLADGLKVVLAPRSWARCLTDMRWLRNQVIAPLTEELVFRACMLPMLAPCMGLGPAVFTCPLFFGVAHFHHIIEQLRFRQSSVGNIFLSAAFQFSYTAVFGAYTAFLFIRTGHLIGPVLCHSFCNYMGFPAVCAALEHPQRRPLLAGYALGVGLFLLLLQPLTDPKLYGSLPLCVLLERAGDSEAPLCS
The assay can be described thus: human Rce1 protease inhibitors, dose response, biochemical, yeast membranes, quenched-peptide fluorescence, cherry-pick (AID 588849).

The target of another assay is Ion channel NompC (Danio rerio, UniProt Q7T1G6). The assay can be described thus: Dose response cell-based high-throughput screening assay for agonists of the transient receptor potential channel N1 (TRPN1). [Related pubchem assays (depositor defined):AID1424, AID1448]. The assay is classed as functional.
The target in the next assay is T6, Mucolipin-3 (Homo sapiens, UniProt Q8TDD5).
T6 sequence (Q8TDD5 whole entry): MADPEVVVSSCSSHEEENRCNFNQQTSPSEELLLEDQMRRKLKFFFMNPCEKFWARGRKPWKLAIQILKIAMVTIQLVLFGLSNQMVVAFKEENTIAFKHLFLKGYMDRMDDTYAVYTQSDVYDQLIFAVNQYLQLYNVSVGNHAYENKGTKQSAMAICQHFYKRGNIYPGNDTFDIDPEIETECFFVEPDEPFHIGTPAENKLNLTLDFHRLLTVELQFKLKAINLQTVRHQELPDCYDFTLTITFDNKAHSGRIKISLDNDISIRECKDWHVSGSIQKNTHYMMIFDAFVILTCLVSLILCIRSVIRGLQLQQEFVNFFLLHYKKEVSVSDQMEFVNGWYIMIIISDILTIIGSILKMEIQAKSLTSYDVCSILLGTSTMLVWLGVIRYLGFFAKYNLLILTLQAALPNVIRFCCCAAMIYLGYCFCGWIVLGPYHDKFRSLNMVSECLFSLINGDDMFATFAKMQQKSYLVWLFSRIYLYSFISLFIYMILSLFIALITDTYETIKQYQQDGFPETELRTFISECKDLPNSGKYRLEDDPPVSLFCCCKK
The assay can be described thus: Fluorescence counterscreen assay for […] agonists: dose response cell-based high-throughput screening assay to identify agonists of the transient receptor potential channel ML3 (TRPML3). [Related pubchem assays: 1424, 1448 ]. The assay is classed as functional.

Assay [11] has as its system HEK293. Put plainly: NOD2 signaling inhibitors in MDP-stimulated cells, cell-based, uHTS, luminescence (AID 2001). Conditions: Homo sapiens. The assay is classed as functional.
Assay [12] has as its system HEK293. The assay can be described thus: cells. Conditions: Homo sapiens. The assay is classed as functional, cell-based.
Assay [13] has as its target T7, Heat shock factor protein 1 (Mus musculus, UniProt P38532).
T7 sequence (P38532 whole entry): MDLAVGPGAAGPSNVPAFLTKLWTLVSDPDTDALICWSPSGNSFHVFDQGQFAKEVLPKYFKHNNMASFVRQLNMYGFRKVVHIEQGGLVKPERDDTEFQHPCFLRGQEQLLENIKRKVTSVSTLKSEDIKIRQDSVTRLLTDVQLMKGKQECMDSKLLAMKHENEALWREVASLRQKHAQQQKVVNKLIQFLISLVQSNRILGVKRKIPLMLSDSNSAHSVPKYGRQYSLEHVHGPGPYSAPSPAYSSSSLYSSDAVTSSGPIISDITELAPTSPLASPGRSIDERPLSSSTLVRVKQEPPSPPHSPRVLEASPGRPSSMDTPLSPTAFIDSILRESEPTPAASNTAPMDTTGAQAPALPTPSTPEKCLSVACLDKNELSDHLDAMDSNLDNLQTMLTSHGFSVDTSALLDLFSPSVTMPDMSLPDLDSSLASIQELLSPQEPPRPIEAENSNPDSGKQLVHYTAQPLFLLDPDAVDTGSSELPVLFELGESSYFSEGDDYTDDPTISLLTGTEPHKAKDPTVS
Put plainly: inhibition of MG132-induced HSE-luciferase signal, confirmation, cell-based, NIH3T3, luminescence, dose retest (AID 2382).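 Also: NIH3T3 fibroblasts with HSF1-driven luciferase reporter stressed by proteasome inhibitor MG132; luminescence from HSF1-driven luciferase expression after 8 hours of MG132 stress.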 It is filed as functional.

The subject of assay [14] is HEK293. Put plainly: NOD1 signaling inhibitors, primary screen, cell-based, luminescence, uHTS (AID 1578). The assay is classed as functional. Conditions: Homo sapiens.
In assay [15] the test system is HEK293. The assay can be described thus: cells. The assay is classed as functional, cell-based. As to conditions: Homo sapiens. This is another data set of the same source.
Assay [16] concerns the target Nucleotide-binding oligomerization domain-containing protein 2 (Homo sapiens, UniProt Q9HC29). The assay can be described thus: NOD2 signaling inhibitors, cell-based, luminescence, uHTS, HEK293 (AID 1566). It is filed as functional.
In assay [17] the target is T8, Acyl-homoserine lactone acylase PvdQ (Pseudomonas aeruginosa (strain LESB58), UniProt Q9I194).
T8 sequence (Q9I194 whole entry): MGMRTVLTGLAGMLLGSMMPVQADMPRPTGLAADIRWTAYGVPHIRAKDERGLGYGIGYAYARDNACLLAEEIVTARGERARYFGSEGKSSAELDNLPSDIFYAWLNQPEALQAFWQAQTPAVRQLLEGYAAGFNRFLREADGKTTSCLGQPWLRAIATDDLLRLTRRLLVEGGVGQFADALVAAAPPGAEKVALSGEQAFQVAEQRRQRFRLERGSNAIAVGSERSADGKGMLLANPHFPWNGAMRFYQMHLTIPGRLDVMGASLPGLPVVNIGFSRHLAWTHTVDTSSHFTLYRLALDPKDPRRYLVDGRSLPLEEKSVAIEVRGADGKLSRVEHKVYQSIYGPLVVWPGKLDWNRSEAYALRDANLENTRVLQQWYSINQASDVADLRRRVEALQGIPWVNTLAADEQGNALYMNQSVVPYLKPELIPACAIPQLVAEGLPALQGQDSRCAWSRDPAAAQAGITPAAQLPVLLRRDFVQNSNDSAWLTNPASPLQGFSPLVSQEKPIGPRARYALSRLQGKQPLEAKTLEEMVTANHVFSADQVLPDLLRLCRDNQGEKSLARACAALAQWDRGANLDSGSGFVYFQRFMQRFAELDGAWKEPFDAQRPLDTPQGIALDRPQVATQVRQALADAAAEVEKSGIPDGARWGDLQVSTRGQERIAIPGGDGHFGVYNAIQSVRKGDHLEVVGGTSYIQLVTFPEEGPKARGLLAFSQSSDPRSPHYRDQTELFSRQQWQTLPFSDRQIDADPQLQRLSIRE
The assay can be described thus: P. aeruginosa PvdQ acylase inhibitors, dose response, biochemical, fluorescence, plate reader and imaging, cherry-picks (AID 493231).

T2 sequence (P11940 whole entry): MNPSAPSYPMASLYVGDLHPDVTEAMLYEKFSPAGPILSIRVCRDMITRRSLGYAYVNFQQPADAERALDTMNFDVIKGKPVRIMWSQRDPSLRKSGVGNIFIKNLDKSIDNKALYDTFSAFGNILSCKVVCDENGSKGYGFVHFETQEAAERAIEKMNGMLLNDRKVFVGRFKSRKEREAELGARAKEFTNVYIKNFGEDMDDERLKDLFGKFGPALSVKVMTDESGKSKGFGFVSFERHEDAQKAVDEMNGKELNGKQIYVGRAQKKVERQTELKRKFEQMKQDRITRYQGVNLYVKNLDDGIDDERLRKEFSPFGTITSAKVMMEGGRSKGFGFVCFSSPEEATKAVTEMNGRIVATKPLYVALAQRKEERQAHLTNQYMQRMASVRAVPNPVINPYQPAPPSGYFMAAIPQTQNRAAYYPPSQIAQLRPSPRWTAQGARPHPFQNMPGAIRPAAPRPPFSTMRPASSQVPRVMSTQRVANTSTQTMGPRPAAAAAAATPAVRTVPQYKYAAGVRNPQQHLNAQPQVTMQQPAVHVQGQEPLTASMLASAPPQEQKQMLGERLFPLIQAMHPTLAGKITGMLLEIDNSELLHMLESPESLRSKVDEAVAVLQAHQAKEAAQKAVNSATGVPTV
Sequence of Eukaryotic translation initiation factor 4E (P63073 whole entry): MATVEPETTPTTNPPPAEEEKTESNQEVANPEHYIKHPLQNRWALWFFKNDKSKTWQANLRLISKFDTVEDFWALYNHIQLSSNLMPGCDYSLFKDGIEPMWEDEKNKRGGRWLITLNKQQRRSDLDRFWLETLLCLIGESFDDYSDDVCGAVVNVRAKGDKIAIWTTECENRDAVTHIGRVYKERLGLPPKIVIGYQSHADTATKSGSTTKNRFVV
Sequence of Glyceraldehyde-3-phosphate dehydrogenase (P04406 whole entry): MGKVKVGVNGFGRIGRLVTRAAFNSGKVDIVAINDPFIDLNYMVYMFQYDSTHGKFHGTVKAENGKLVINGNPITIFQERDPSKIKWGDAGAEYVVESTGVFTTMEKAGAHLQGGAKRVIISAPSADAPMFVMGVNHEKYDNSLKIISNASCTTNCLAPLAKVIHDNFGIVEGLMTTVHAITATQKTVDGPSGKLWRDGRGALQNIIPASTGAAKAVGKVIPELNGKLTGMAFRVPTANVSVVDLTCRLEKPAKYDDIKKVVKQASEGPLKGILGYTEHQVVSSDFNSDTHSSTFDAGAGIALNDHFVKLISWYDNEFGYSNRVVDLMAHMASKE
Sequence of Ion channel NompC (Q7T1G6 whole entry): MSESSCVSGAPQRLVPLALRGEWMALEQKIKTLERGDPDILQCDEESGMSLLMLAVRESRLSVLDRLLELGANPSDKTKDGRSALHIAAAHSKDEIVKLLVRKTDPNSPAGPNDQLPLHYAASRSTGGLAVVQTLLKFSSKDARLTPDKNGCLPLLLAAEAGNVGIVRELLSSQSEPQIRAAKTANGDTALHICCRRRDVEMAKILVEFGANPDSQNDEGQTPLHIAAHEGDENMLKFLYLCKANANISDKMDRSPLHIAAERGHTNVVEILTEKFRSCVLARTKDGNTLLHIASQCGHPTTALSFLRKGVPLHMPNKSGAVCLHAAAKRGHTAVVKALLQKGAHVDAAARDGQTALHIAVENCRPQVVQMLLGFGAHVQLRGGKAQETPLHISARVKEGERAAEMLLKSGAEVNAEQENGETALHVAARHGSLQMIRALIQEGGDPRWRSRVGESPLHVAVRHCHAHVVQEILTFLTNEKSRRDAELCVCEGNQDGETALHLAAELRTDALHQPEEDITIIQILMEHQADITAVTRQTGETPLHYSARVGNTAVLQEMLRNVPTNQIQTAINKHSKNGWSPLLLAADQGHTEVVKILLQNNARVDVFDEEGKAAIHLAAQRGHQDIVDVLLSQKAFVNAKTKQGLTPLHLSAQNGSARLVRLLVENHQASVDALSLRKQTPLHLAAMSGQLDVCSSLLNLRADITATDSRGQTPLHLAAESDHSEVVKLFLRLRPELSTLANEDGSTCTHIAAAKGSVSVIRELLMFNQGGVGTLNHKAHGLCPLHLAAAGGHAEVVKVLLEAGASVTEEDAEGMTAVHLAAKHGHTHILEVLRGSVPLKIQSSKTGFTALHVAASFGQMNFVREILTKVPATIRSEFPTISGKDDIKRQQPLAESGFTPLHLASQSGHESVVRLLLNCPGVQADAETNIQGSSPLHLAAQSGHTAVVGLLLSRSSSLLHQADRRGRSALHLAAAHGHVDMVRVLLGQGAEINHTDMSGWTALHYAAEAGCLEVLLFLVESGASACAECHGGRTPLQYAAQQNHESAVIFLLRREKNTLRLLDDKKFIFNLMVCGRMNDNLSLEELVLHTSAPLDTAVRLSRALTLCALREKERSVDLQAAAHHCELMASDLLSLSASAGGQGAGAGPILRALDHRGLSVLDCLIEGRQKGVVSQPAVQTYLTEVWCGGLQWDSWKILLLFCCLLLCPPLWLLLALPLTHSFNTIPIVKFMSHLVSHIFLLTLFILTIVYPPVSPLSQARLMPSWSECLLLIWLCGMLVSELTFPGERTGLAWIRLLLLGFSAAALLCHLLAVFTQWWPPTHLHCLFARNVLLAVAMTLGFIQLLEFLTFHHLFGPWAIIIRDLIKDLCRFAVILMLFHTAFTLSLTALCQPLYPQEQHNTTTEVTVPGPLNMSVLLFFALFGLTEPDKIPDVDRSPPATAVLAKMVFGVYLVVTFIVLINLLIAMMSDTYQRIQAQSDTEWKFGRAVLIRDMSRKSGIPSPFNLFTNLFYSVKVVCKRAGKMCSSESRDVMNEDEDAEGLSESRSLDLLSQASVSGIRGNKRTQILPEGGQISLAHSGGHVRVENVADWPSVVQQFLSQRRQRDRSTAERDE
Sequence of Nucleotide-binding oligomerization domain-containing protein 2 (Q9HC29 whole entry, the tested form may be a part): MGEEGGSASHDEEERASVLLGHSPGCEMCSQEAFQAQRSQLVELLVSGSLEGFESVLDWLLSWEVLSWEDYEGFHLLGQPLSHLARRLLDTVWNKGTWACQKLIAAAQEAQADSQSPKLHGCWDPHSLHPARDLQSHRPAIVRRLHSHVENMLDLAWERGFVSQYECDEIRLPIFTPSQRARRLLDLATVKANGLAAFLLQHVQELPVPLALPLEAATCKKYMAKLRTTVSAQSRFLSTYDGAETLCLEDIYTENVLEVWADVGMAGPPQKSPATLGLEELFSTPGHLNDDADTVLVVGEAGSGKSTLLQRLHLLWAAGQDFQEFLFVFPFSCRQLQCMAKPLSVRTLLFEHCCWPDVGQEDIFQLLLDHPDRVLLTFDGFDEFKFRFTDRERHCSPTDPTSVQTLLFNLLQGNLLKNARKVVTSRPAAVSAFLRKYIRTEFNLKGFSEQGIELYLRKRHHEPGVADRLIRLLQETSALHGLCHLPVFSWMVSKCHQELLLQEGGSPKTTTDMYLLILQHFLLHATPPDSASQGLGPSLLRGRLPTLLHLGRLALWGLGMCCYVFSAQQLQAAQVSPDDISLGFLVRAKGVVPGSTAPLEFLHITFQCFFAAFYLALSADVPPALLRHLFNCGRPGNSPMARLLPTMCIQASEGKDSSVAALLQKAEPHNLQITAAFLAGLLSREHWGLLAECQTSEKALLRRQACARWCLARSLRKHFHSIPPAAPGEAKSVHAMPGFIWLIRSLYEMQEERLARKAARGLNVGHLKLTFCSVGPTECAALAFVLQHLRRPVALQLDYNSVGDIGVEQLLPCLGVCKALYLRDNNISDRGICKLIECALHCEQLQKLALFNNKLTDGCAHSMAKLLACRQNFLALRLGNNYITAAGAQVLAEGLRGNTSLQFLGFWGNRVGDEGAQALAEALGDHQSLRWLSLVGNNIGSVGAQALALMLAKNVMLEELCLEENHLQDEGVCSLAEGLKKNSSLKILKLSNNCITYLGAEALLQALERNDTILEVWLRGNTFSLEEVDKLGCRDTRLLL
Sequence of DNA dC->dU-editing enzyme APOBEC-3G (Q9HC16 whole entry): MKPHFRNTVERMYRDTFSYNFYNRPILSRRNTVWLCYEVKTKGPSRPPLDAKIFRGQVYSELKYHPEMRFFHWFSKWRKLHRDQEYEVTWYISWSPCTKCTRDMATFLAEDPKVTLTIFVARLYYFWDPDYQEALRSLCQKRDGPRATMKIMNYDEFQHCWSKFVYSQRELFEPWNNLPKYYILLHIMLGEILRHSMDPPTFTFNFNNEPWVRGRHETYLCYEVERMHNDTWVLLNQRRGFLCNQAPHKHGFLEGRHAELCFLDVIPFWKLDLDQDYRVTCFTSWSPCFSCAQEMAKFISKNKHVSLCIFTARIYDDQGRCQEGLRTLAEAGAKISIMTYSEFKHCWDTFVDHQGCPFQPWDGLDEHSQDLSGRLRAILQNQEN
Sequence of Nonstructural protein 1 (Q194T2 whole entry): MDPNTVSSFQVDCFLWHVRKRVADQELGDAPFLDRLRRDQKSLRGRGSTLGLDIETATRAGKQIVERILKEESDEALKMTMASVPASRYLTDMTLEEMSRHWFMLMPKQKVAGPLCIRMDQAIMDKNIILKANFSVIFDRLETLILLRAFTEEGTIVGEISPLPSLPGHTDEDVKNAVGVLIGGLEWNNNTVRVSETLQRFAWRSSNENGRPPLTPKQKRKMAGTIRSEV
Sequence of Trypsin (P00761 whole entry): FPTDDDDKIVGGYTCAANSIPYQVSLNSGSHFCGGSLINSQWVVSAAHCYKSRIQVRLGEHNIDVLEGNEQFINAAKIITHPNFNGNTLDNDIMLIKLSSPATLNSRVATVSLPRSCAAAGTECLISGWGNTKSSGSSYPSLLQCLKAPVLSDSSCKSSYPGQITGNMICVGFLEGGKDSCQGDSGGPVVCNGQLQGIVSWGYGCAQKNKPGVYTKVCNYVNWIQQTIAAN

Consider `CS(=O)(=O)Nc1ccccc1C(=O)Nc1cccc(Cl)c1`, for which the AC50 is 6.73 µM (active) on Trypsin, 21.8 µM (active) on CAAX prenyl protease 2 [1] and 45.2 µM (active) in [2].

In the case of `CCOC(=O)N1CCN(C(c2cccnc2)c2ccc3cccnc3c2O)CC1` (configuration not stated), the IC50 is > 64 µM (inactive) in [3]; > 66 µM (inactive) in assay [4]; 14.6 µM (active) on Nonstructural protein 1; 32 µM (active) in assay [5]; 10.6 µM (not active) against Estrogen receptor beta; > 66 µM (inactive) in assay [6].

With `COc1ccc(Br)cc1S(=O)(=O)n1cc(C(N)=O)c2ccccc21`, the figures for the IC50 in assay [7] and in [8] were > 100 µM (inactive) and > 100 µM (not active), respectively.

As to `O=C(OCc1cc(=O)n2c(n1)sc1ccccc12)c1ccc(O)cc1O`, in [3], the IC50 was 50 µM (inactive).

As to `CCn1c(N)c(C(=O)NCC2CCCO2)sc1=S` (configuration not stated), the IC50 in [9] is 66.6 µM (active).

For the compound `COC(=O)Cn1c(CCC(=O)O)ccc1-c1ccccc1`, the AC50 at CAAX prenyl protease 2 [10] is 32.7 µM (active).

Turning to `O=[N+]([O-])c1ccc(Oc2ccc(S(=O)(=O)Nc3ccccc3)cc2)cc1`, the EC50 was > 29.9 µM (inactive) on Ion channel NompC and > 29.9 µM (not active) on Mucolipin-3.

Regarding `CCOc1ccccc1-n1c(SCC(=O)Nc2ccccc2C(=O)O)nc2ccccc2c1=O`, the IC50 in the assay on HEK293 [11], in the assay with HEK293 [12] and in the assay with HEK293 [15] was > 20 µM (inactive) each time. Besides, the results for the EC50 (in assay [13]; in the assay on HEK293 [14]; in [16]) were 4.46 µM (active), > 20 µM (inactive) and > 20 µM (inactive), respectively.

Take `COC(=O)c1cc(-c2ccc(Br)cc2)on1`: the AC50 in assay [17] is 4.37 µM (active). Besides, the IC50 is > 100 µM (inactive) in assay [7] and > 100 µM (not active) in assay [8].

Consider `S=C(NCCCc1ccccc1)Nc1ccccc1Cl`, for which the EC50 is > 29.9 µM (inactive) at Ion channel NompC and > 29.9 µM (not active) on Mucolipin-3.
